BindingDB's records for doi:10.1016/j.bmcl.2014.03.095 (University of Utah, 2014)

Biological target: Elongin-B/Elongin-C/von Hippel-Lindau disease tumor suppressor (Homo sapiens, UniProt P40337+Q15370+Q15369)
Experiment: Displacement of FAM-DEALAHyp-YIPD from 6xHis-tagged VHL (1 to 213)/elongins-B/elonginC (unknown origin) expressed in Escherichia coli BL21 after 1 min by fluorescence polarization assay

Chain of Elongin-B/Elongin-C/von Hippel-Lindau disease tumor suppressor (P40337 whole entry, looked up): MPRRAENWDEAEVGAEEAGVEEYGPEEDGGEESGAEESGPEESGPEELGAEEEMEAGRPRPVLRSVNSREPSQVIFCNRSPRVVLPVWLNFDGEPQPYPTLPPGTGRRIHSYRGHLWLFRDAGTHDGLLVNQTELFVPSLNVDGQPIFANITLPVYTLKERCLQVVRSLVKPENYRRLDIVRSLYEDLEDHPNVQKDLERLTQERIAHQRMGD
Chain of Elongin-B/Elongin-C/von Hippel-Lindau disease tumor suppressor (Q15369 whole entry, looked up): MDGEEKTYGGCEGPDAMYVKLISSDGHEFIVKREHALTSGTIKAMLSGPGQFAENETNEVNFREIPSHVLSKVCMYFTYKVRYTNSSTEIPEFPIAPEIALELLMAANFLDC
Chain of Elongin-B/Elongin-C/von Hippel-Lindau disease tumor suppressor (Q15370 whole entry, looked up): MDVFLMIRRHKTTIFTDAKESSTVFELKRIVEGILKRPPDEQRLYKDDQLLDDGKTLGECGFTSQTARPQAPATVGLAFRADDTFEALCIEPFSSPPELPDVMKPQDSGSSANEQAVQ

Compound Cc1cc(CC(=O)N2C[C@H](O)C[C@H]2C(=O)NCc2cccc(Cl)c2)on1 has an IC50 of 117 µM.
